The text below walks through data of patent US20100311036A1, “Methods for Augmentation of Cell Cryopreservation” (UNIVERSITY OF SOUTH CAROLINA, priority 2009, published 2010).

A value given as a limit tells only on which side of the number the result lay.

Data set [1] deals with R1 mouse ES cells. Put plainly: attachment efficiency (1 day viability) post cryopreservation. Format: cell-based. To be noted: post ultrafast vitrification in quartz microcapillary; 2 M PROH and/or 0.5 M extracellular trehalose; day 1, relative to non-frozen control. As to the method:
(§1) A novel ultrafast cooling (cooling rate >2×10^5° C./min) technique for ice-free cryopreservation (i.e., ultrafast vitrification) of mouse ES cells has been recently developed using quartz microcapillaries (180 μm in inner diameter and 10 μm in wall thickness in the working part). A comparison of the quartz microcapillary and the traditional French type plastic straw used for cell vitrification is given in FIG. 2. […]
(§2) The immediate cell viability post cryopreservation represented by membrane integrity was assessed using the standard live/dead assay kit of two fluorescent probes: calcein AM and ethidium homodimer (Invitrogen, Carlsbad, Calif.). Cells that excluded ethidium homodimer and retained the fluorescent calcein were counted as being viable. To check cell viability more than one day post cryopreservation, cell attachment evaluated at day 1 and proliferation/growth evaluated over a three-day observation period were also studied. […] The number of cells in at least 20 randomly selected representative fields under a 10× objective was counted every day for all the samples. Proliferation was assessed by normalizing the number of cells at day 3 and day 2 to that at day 1. Attachment efficiency (i.e., viability at day 1) was calculated as the ratio of the number of cells of a cryopreserved sample to that of the control non-frozen sample at day 1. […]

In data set [2] the test system is R1 mouse ES cells. The data set is described as follows: immediate cell viability post cryopreservation (membrane integrity, live/dead assay). Format: cell-based. Particulars: post ultrafast vitrification in quartz microcapillary; 2 M PROH and/or 0.5 M extracellular trehalose; within 3 hr at day 0. As to the method: as §1, §2

As for `CC(O)CO` (stereo not shown) [1,2-propanediol], the “1 day viability (attachment efficiency)” value in data set [1] is reported as roughly 12%. This compound had an immediate cell viability in data set [2] of roughly 20%.
For `OC[C@H]1O[C@H](O[C@H]2O[C@H](CO)[C@@H](O)[C@H](O)[C@H]2O)[C@H](O)[C@@H](O)[C@@H]1O` [trehalose], in that order: less than 2% and “about 65%”.
